{
  "source": "patent US12565665B2",
  "about": "“Compositions and methods for controlled mRNA translation and stability” (TRUSTEES OF BOSTON UNIVERSITY, priority 2022, dated 2026)",
  "assay_type_in_all_cases": "cell-based, human",
  "key": {"UAG-MS2 editing reporter": {"tested_on": "UAG-MS2 editing reporter", "test": "Stop codon editing reporter (mCherry / mNeonGreen) co-transfected with ADAR variants, fluorescence microscopy / ImageJ quantification", "details": "HEK 293 FT cells co-transfected with reporter containing 2 UAG stop codons in the hairpin; two days after transfection"}, "T2A* construct": {"tested_on": "T2A* construct", "test": "Western blot (FLAG) of T2A* construct co-transfected with MCP-ADAR constructs", "details": "3 ng T2A* and 30 ng ADAR construct; lysates 48 hours later", "experimental": "Additionally, the clonal HEK line was co-transfected with 3 ng of the T2A* construct and 30 ng of either filler DNA, MCP-dADAR, or MCP-ADAR. 48 hours later lysates were collected with 1×LDS-PAGE loading buffer (THERMOFISHER) on ice. The samples were sonicated, centrifuged, and boiled at 70° C. for 10 min after the addition of 1×Reducing Agent (THERMOFISHER). The samples were run on a 4%-12% bis-tris polyacrylamide gel at 175V for 45 minutes, and the samples were transferred onto a nitrocellulose membrane using the IBLOT (THERMOFISHER). Samples were probed for FLAG tag (Direct-Blot™ HRP anti-[…] Tag Antibody, “[…]” is disclosed as SEQ ID NO: 406) and GAPDH-loading control (Direct-Blot™ HRP anti-GAPDH Antibody) respectively."}, "[1]": {"tested_on": "Non-Stop-Decay reporter construct", "test": "Non-stop decay OFF-switch reporter (dTomato-BiCMV-EGFPd2)", "details": "biCMV reporter with 2 UAG stop codons; 48-hours post-transfection", "from_the_text": "In order to do so, the inventors designed a synthetic transcript (FIG. 2A) where there is an open reading frame (green), 1 or more stop codons in an RNA-hairpin (dark gray), a specific RNA element (light gray), and a 3′UTR with no downstream stop codons prior to the polyadenylate (polyA) tail. The inventors created a reporter plasmid that contained a bidirectional CMV driving the expression dTomato on one transcript and EGFPd2, an editable stop codon, an MS2 operator, and a mutated rabbit-β-globin 3′UTR/poly A signal sequence lacking additional stop codons on the other transcript (FIG. 2B). In the absence of ADAR-DD activity, both dTomato and EGFPd2 should be translated and expressed. However, coexpression of MCP-ADAR2 should lead to editing of the only in-frame stop codon and the initiation of an endogenous process called non-stop decay, whereby the translating ribosome stalls on the polyA-tail and recruits Ski7 followed by exonucleases to destroy the mRNA (FIG. 2C). In this process, proteosomal degradation of the nascent, unreleased polypeptide also occurs. […]\nAs a final test, the inventors used the MS1(117A)/Mcl-1 variant with the dTomato-BiCMV-EGFPd2 reporter plasmid (FIG. 2B), which should lose EGFPd2 fluorescence with ADAR editing of the final stop codon."}, "AUA reporter": {"tested_on": "AUA reporter", "test": "Creation of a START codon (AUA to AUI), EGFPd2/dTomato reporter, flow cytometry", "details": "48 hours post-transfection, n=3", "from_the_text": "To test this, an ADAR substrate was designed composed of a dsRNA hairpin containing both an AUA-codon with a mismatch at the second adenine to promote specific deamination to AUI (as opposed to IUA or IUI) and an MS2 operator motif (see e.g., FIG. 26b). The design of one large dsRNA hairpin was chosen to promote correct folding of RNA secondary structures. Previous studies have shown that MS2 operators in the 5′UTR of eukaryotic mRNA can lead to decreased translational efficiency when co-expressed with its corresponding coat protein (MS2 coat protein, or MCP), so high and low affinity variants of the MS2 operator (called here MS2-C and MS2-A respectively for the base at the stem loop) were tested with the idea that the lower affinity MS2-A loop would be less likely to inhibit translation by coat protein alone. As positive controls, the same loops were also designed with the correct AUG start codon.\nThese designs were cloned into pcDNA3 vectors containing a bidirectional CMV promoter driving constitutive dTomato and EGFPd2 (see e.g., FIG. 26c). The S′UTR and start codon of EGFPd2 were replaced with the editable start codon designs so the translational efficiency could be measured by looking at the EGFPd2 fluorescence relative to dTomato when co-expressed with MCP-ADAR. In this construct, if the correct start codon is skipped, the next AUG codon leads to a short, out of frame translation product.\nHEK293FT cells were co-transfected with each of the reporter constructs (MS2-C w/ AUG start, MS2-C w/ AUA start, MS2-A w/ AUG start, and MS2-A w/ AUA start) and either filler DNA, inactivated ADAR2-DD (E396A) fused to MCP (MCP-dADAR), or active ADAR2-DD (E488Q) fused to MCP (MCP-ADAR). 48 hours post-transfection, cells were lifted and analyzed by flow cytometry. Transfected cells were gated by dTomato, and the median EGFPd2-to-dTomato ratio for the population was calculated per replicate (n=3) by FLOWJO. 2-Way ANOVA was performed to determine significance."}, "editable AUG reporters": {"tested_on": "editable AUG reporters", "test": "Destruction of an AUG start codon to IUG, EGFPd2/dTomato reporter, flow cytometry", "details": "48 hours post-transfection; n=3", "from_the_text": "To test this, an ADAR substrate was designed similar to the substrates tested above, but with an AUG codon in a dsRNA hairpin with a mismatch to promote the deamination of the correct adenine (see e.g., FIG. 28b). This scheme was similarly tested with both the high affinity MS2-C and lower affinity MS2-A variants by cloning these substrates into a pcDNA3 vector with a bidirectional CMV driving the expression of dTomato and EGFPd2 (see e.g., FIG. 28c).\nHEK cells were co-transfected with the two different reporter constructs (MS2-C and MS2-A) and cither filler DNA, MCP-dADAR, or MCP-ADAR. 48 hours post-transfection, cells were lifted and analyzed by flow cytometry. Transfected cells were gated by dTomato, and the median EGFPd2-to-dTomato ratio for the population was calculated per replicate (n=3) by FLOWJO. 2-Way ANOVA was performed to determine significance."}},
  "data": [
    {"substance": "MCP-linker-ADAR2(E488Q)-TagBFP [MCP-ADAR]", "values": [
      {"measurement": "mNeonGreen expression, fluorescence microscopy", "setting": "UAG-MS2 editing reporter", "result": "mNeonGreen robustly expressed"},
      {"measurement": "FLAG staining of the main HaloTag-T2A*-FLAG-Gal4-VP64 fusion product (~67 kDa)", "setting": "T2A* construct", "result": "reduced staining"},
      {"measurement": "EGFPd2 expression relative to catalytically inactive DD, fluorescence microscopy", "setting": "[1]", "result": "greatly decreased EGFPd2 expression levels"},
      {"measurement": "effect on translational efficiency from a native AUG start codon, MS2-A substrate", "setting": "AUA reporter", "result": "more modest negative effect on translational efficiency"},
      {"measurement": "increase of relative fluorescence, MS2-C w/ AUA reporter, relative to NT", "setting": "AUA reporter", "result": "not significant"},
      {"measurement": "relative EGFPd2/dTomato fluorescence, MS2-A w/ AUA substrate", "setting": "AUA reporter", "result": "significant increase"},
      {"measurement": "relative fluorescence (EGFPd2-to-dTomato) of MS2-C reporters compared with filler DNA (NT)", "setting": "AUA reporter; 2-Way ANOVA", "result": "significantly decreased the relative fluorescence"},
      {"measurement": "relative EGFPd2 levels, active vs inactive ADAR, MS2-A based AUG construct", "setting": "editable AUG reporters", "result": "further, significant decrease in relative EGFPd2 levels"},
      {"measurement": "translational efficiency, MS2-A based AUG construct", "setting": "editable AUG reporters", "result": "significant decrease in translational efficiency"}
    ]}
  ]
}
